Test systems include TK-10; HCT-15; T47D; OVCAR-8; MDA-N; 786-0; UACC-62; SN12C; IGROV-1; SF-295; MOLT-4; OVCAR-5; Malme-3M; SK-OV-3; SW-620; HOP-62; NCI-H23; A498; HT-29; UACC-257.
What all share (assay): NCI anticancer screen, dose series, 48 h

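Step 1: Grow cells in 96-well plates. Step 2: Expose to compound for 48 hours at 5 concentrations. Step 3: Interpolate endpoints linearly; if unreached, use highest concentration. GI50 marks 50% less growth.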 Active and inactive are the calls of the source. Cut-off read from the data, not from the text of the source: active = GI50 up to about 1.1 µM and inactive = higher.

Take `Fc1ccc(C(=C2CCN(CCc3ccc4[nH]c(=S)[nH]c4c3)CC2)c2ccc(F)cc2)cc1`: the GI50 was 2.17 µM (inactive) in the assay with TK-10; 3.15 µM in the assay on HCT-15; 1.92 µM (inactive) with T47D; 2.74 µM (inactive) in the assay with OVCAR-8; 1.96 µM (inactive) in the assay with MDA-N; 1.86 µM (inactive) with 786-0. Further, the GI50 is 5.32 µM (inactive) in the assay on UACC-62; 4.52 µM (inactive) in the assay on SN12C; 3.99 µM (inactive) with IGROV-1; 6.92 µM (inactive) in the assay on SF-295; 3 µM (inactive) with MOLT-4; 9.23 µM (inactive) in the assay on OVCAR-5. In addition, the GI50 with Malme-3M is 1.47 µM (inactive); with SK-OV-3, 18.7 µM (inactive); in the assay on SW-620 it was 2.47 µM (inactive); with HOP-62, 15.8 µM (inactive); in the assay on NCI-H23, 5.02 µM (inactive); with A498 it was 8.38 µM (inactive). Also, the GI50 in the assay with HT-29 was 1.9 µM (inactive).
For the molecule `O=C(O)/C=C\C(=O)Nn1c(Cc2ccc(Cl)cc2)n[nH]c1=O`, the GI50 in the assay on TK-10 is > 100 µM (inactive); in the assay with HCT-15 it was more than 100 µM; with T47D it was > 100 µM (inactive); with OVCAR-8, > 100 µM (inactive); in the assay with UACC-257, > 100 µM (inactive); with MDA-N it was > 100 µM (inactive). For the same molecule, the GI50 in the assay on 786-0, in the assay with UACC-62, in the assay on SN12C, with IGROV-1, in the assay on SF-295 and in the assay on MOLT-4 was > 100 µM (inactive) throughout. Moreover, the GI50 in the assay on OVCAR-5, in the assay with Malme-3M, in the assay with SK-OV-3, with HOP-62, with NCI-H23 and with A498 was > 100 µM (inactive) in each case. Besides, the GI50 with HT-29 is > 100 µM (inactive).
For the molecule `CSCCCS/C1=C/CCCCCCCCCC1`, the GI50 was > 100 µM (inactive) in the assay on TK-10; more than 100 µM in the assay with HCT-15; > 100 µM (inactive) with T47D; > 100 µM (inactive) in the assay on UACC-257; > 100 µM (inactive) in the assay with MDA-N; > 100 µM (inactive) in the assay on 786-0. Also, the GI50 in the assay with UACC-62, in the assay with SN12C, in the assay on IGROV-1, in the assay on SF-295, in the assay on MOLT-4 and in the assay on OVCAR-5 was > 100 µM (inactive) each time. Besides, the GI50 in the assay on Malme-3M, in the assay on SK-OV-3, in the assay on HOP-62, in the assay on NCI-H23, in the assay with A498 and with HT-29 was > 100 µM (inactive) throughout.
For the molecule `N#Cc1[nH]c(=O)n(-c2ccc(Cl)cc2)c1N`, the GI50 with TK-10 was > 10 µM (inactive); with HCT-15, more than 10 µM; with T47D, > 10 µM (inactive); in the assay with OVCAR-8, > 10 µM (inactive); with UACC-257 it was > 10 µM (inactive); with MDA-N it was > 10 µM (inactive). In addition, the GI50 in the assay on 786-0, with UACC-62, with SN12C, in the assay on IGROV-1, in the assay with SF-295 and with MOLT-4 was > 10 µM (inactive) each time. In addition, the GI50 was > 10 µM (inactive) in the assay with OVCAR-5; 8.79 µM (inactive) with Malme-3M; > 10 µM (inactive) with SK-OV-3; > 10 µM (inactive) in the assay with HOP-62; > 10 µM (inactive) with NCI-H23; > 10 µM (inactive) in the assay with A498. Besides, the GI50 with HT-29 was > 10 µM (inactive).
Consider `CNc1ccc(Cl)cc1S(=O)(=O)c1ccccc1[N+](=O)[O-]`, for which the GI50 in the assay with TK-10 is > 100 µM (inactive); with HCT-15, more than 100 µM; with T47D it was > 100 µM (inactive); with OVCAR-8, > 100 µM (inactive); in the assay on MDA-N, > 100 µM (inactive); in the assay with 786-0 it was > 100 µM (inactive). The GI50 in the assay with UACC-62, with SN12C, in the assay with IGROV-1, with SF-295, with MOLT-4 and in the assay on OVCAR-5 was > 100 µM (inactive) throughout. Also, the GI50 in the assay with Malme-3M, in the assay on SK-OV-3, in the assay on SW-620, in the assay on HOP-62, in the assay on NCI-H23 and with A498 was > 100 µM (inactive) throughout. In the assay on HT-29, the GI50 was > 100 µM (inactive).
With `Cc1ccc(C)n1-n1c(Cc2ccc(Cl)cc2)n[nH]c1=O`, the GI50 in the assay with TK-10 is > 100 µM (inactive); in the assay with HCT-15, more than 100 µM; with T47D, 39.9 µM (inactive); in the assay with OVCAR-8, 77.4 µM (inactive); in the assay with UACC-257, 74.8 µM (inactive); in the assay on MDA-N, > 100 µM (inactive). For the same molecule, the GI50 in the assay with 786-0 is > 100 µM (inactive); in the assay on UACC-62, > 100 µM (inactive); with SN12C, > 100 µM (inactive); with IGROV-1 it was > 100 µM (inactive); with SF-295 it was 66.2 µM (inactive); with MOLT-4 it was 29 µM (inactive). For the same molecule, the GI50 in the assay with OVCAR-5 is > 100 µM (inactive); with Malme-3M, 92.5 µM (inactive); in the assay on SK-OV-3, > 100 µM (inactive); in the assay with SW-620 it was > 100 µM (inactive); in the assay on HOP-62 it was > 100 µM (inactive); in the assay with A498 it was > 100 µM (inactive). In addition, in the assay on HT-29, the GI50 was 73.8 µM (inactive).
In the case of `Nc1c(Br)cc(-c2nc3ccccc3s2)cc1Br`, the GI50 with TK-10 is 6.85 µM (inactive); in the assay with HCT-15 it was more than 100 µM; in the assay on T47D it was > 100 µM (inactive); with OVCAR-8, > 100 µM (inactive); in the assay with UACC-257, > 100 µM (inactive); with MDA-N it was > 100 µM (inactive). Besides, the GI50 in the assay with 786-0 was > 100 µM (inactive); in the assay on UACC-62 it was > 100 µM (inactive); in the assay on SN12C, > 100 µM (inactive); in the assay on IGROV-1, 5.12 µM (inactive); in the assay with SF-295 it was > 100 µM (inactive); in the assay on MOLT-4, > 100 µM (inactive). Also, the GI50 in the assay with OVCAR-5, in the assay with Malme-3M, in the assay with SK-OV-3, in the assay on SW-620, in the assay on HOP-62 and in the assay on A498 was > 100 µM (inactive) each time. Moreover, the GI50 with HT-29 is > 100 µM (inactive).
Regarding `Clc1ccc(Cl)c(/N=N\c2cc3c4c(c2)CCN4CCC3)c1`, the GI50 in the assay with TK-10 is > 10 µM (inactive); with HCT-15, more than 10 µM; in the assay on T47D, > 10 µM (inactive); in the assay on OVCAR-8, > 10 µM (inactive); in the assay on UACC-257 it was > 10 µM (inactive); in the assay with MDA-N, > 10 µM (inactive). Further, the GI50 in the assay on 786-0, with UACC-62, in the assay on SN12C, in the assay on IGROV-1, in the assay on SF-295 and in the assay with MOLT-4 was > 10 µM (inactive) in each case. For the same molecule, the GI50 in the assay on Malme-3M, in the assay with SK-OV-3, with SW-620, in the assay with HOP-62, in the assay on NCI-H23 and in the assay with A498 was > 10 µM (inactive) each time. In the assay on HT-29, the GI50 was > 10 µM (inactive).
